Data as given in the NIST ThermoML archive (doi:10.1021/je500381c).

Key:
[1] = refractive index (Na D-line) (dimensionless); details: 101.33 kPa, Liquid, Standard Abbe refractometry
[2] = for viscosity / mass density: 100 kPa, Liquid; for mass density: Vibrating tube method; for surface tension liquid-gas: Drop volume
[3] = refractive index (Na D-line) (dimensionless); xn = mol fraction of the nth substance listed; details: 100 kPa, Liquid, Standard Abbe refractometry
[4] = xn = mol fraction of the nth substance listed; details: for mass density / viscosity: 100 kPa, Liquid; for mass density: Vibrating tube method; for surface tension liquid-gas: Drop volume

CC12CC3CC(C1)CC(C)(C3)C2 [1,3-dimethyladamantane]
Details	mass density, [2] [kg/m3]	refractive index, [1]	surface tension liquid-gas, [2] [mN/m]	viscosity, [2] [mPa·s]
293.15 K	901.58	1.4776	–	3.764
298.15 K	898.04	1.4757	27.88	3.345
303.15 K	894.48	1.4734	–	3.004
308.15 K	890.92	–	–	2.711
313.15 K	887.35	1.4691	–	2.458
318.15 K	883.77	–	–	2.237
323.15 K	880.19	1.4651	–	2.045
328.15 K	876.6	–	–	1.876
333.15 K	873.01	1.461	–	1.728

OCC1CCCCC1 [cyclohexylmethanol] + CC12CC3CC(C)(C1)CC(C)(C3)C2
x1 = 1
Details	mass density, [4] [kg/m3]	refractive index, [3]	surface tension liquid-gas, [4] [mN/m]	viscosity, [4] [mPa·s]
293.15 K	929.76	1.4629	–	37.75
298.15 K	926.25	1.4612	32.43	28.67
303.15 K	922.71	1.4592	–	22.34
308.15 K	919.14	–	–	17.57
313.15 K	915.53	1.455	–	14.09
318.15 K	911.88	–	–	11.43
323.15 K	908.19	1.4507	–	9.354
328.15 K	904.45	–	–	7.766
333.15 K	900.67	1.4463	–	6.462

CC12CC3CC(C1)CC(C)(C3)C2 [1,3-dimethyladamantane] + OCC1CCCCC1
x2 = 0
Details	mass density, [4] [kg/m3]	refractive index, [3]	surface tension liquid-gas, [4] [mN/m]	viscosity, [4] [mPa·s]
293.15 K	901.58	1.4776	–	3.764
298.15 K	898.04	1.4757	27.88	3.345
303.15 K	894.48	1.4734	–	3.004
308.15 K	890.92	–	–	2.711
313.15 K	887.35	1.4691	–	2.458
318.15 K	883.77	–	–	2.237
323.15 K	880.19	1.4651	–	2.045
328.15 K	876.6	–	–	1.876
333.15 K	873.01	1.461	–	1.728

OCC1CCCCC1 [cyclohexylmethanol]
Details	mass density, [2] [kg/m3]	refractive index, [1]	surface tension liquid-gas, [2] [mN/m]	viscosity, [2] [mPa·s]
293.15 K	929.76	1.4629	–	37.75
298.15 K	926.25	1.4612	32.43	28.67
303.15 K	922.71	1.4592	–	22.34
308.15 K	919.14	–	–	17.57
313.15 K	915.53	1.455	–	14.09
318.15 K	911.88	–	–	11.43
323.15 K	908.19	1.4507	–	9.354
328.15 K	904.45	–	–	7.766
333.15 K	900.67	1.4463	–	6.462

CCCCCCCO [heptan-1-ol] + CCC12CC3CC(CC(C3)C1)C2
x1 = 1
Details	mass density, [4] [kg/m3]	refractive index, [3]	surface tension liquid-gas, [4] [mN/m]	viscosity, [4] [mPa·s]
293.15 K	822.28	1.4236	–	6.887
298.15 K	818.79	1.422	26.23	5.812
303.15 K	815.28	1.4203	–	4.95
308.15 K	811.74	–	–	4.245
313.15 K	808.16	1.4156	–	3.654
318.15 K	804.56	–	–	3.17
323.15 K	800.92	1.4115	–	2.768
328.15 K	797.24	–	–	2.428
333.15 K	793.52	1.4077	–	2.141

CCCCCCCO [heptan-1-ol] + CC12CC3CC(C)(C1)CC(C)(C3)C2
x1 = 1
Details	mass density, [4] [kg/m3]	refractive index, [3]	surface tension liquid-gas, [4] [mN/m]	viscosity, [4] [mPa·s]
293.15 K	822.28	1.4236	–	6.887
298.15 K	818.79	1.422	26.23	5.812
303.15 K	815.28	1.4203	–	4.95
308.15 K	811.74	–	–	4.245
313.15 K	808.16	1.4156	–	3.654
318.15 K	804.56	–	–	3.17
323.15 K	800.92	1.4115	–	2.768
328.15 K	797.24	–	–	2.428
333.15 K	793.52	1.4077	–	2.141

CCC12CC3CC(CC(C3)C1)C2 [1-ethyladamantane]
Details	mass density, [2] [kg/m3]	refractive index, [1]	surface tension liquid-gas, [2] [mN/m]	viscosity, [2] [mPa·s]
293.15 K	937.11	1.4927	–	6.371
298.15 K	933.58	1.4906	29.87	5.565
303.15 K	929.99	1.4884	–	4.903
308.15 K	926.4	–	–	4.348
313.15 K	922.81	1.4839	–	3.878
318.15 K	919.21	–	–	3.478
323.15 K	915.62	1.4802	–	3.134
328.15 K	912.01	–	–	2.838
333.15 K	908.41	1.4759	–	2.581

OCC1CCCCC1 [cyclohexylmethanol] + CCC12CC3CC(CC(C3)C1)C2
x1 = 1
Details	mass density, [4] [kg/m3]	refractive index, [3]	surface tension liquid-gas, [4] [mN/m]	viscosity, [4] [mPa·s]
293.15 K	929.76	1.4629	–	37.75
298.15 K	926.25	1.4612	32.43	28.67
303.15 K	922.71	1.4592	–	22.34
308.15 K	919.14	–	–	17.57
313.15 K	915.53	1.455	–	14.09
318.15 K	911.88	–	–	11.43
323.15 K	908.19	1.4507	–	9.354
328.15 K	904.45	–	–	7.766
333.15 K	900.67	1.4463	–	6.462

CCCCCCCO [heptan-1-ol]
Details	mass density, [2] [kg/m3]	refractive index, [1]	surface tension liquid-gas, [2] [mN/m]	viscosity, [2] [mPa·s]
293.15 K	822.28	1.4236	–	6.887
298.15 K	818.79	1.422	26.23	5.812
303.15 K	815.28	1.4203	–	4.95
308.15 K	811.74	–	–	4.245
313.15 K	808.16	1.4156	–	3.654
318.15 K	804.56	–	–	3.17
323.15 K	800.92	1.4115	–	2.768
328.15 K	797.24	–	–	2.428
333.15 K	793.52	1.4077	–	2.141

CC12CC3CC(C)(C1)CC(C)(C3)C2 [1,3,5-trimethyladamantane]
Details	mass density, [2] [kg/m3]	refractive index, [1]	surface tension liquid-gas, [2] [mN/m]	viscosity, [2] [mPa·s]
293.15 K	887.48	1.4736	–	2.601
298.15 K	883.99	1.4715	26.17	2.338
303.15 K	880.47	1.4695	–	2.118
308.15 K	876.94	–	–	1.93
313.15 K	873.4	1.4649	–	1.765
318.15 K	869.86	–	–	1.621
323.15 K	866.31	1.4612	–	1.494
328.15 K	862.76	–	–	1.384
333.15 K	859.2	1.4568	–	1.284

CCCCCCCO [heptan-1-ol] + CC12CC3CC(C1)CC(C)(C3)C2
x1 = 1
Details	mass density, [4] [kg/m3]	refractive index, [3]	surface tension liquid-gas, [4] [mN/m]	viscosity, [4] [mPa·s]
293.15 K	822.28	1.4236	–	6.887
298.15 K	818.79	1.422	26.23	5.812
303.15 K	815.28	1.4203	–	4.95
308.15 K	811.74	–	–	4.245
313.15 K	808.16	1.4156	–	3.654
318.15 K	804.56	–	–	3.17
323.15 K	800.92	1.4115	–	2.768
328.15 K	797.24	–	–	2.428
333.15 K	793.52	1.4077	–	2.141
